Reference: ChEMBL document CHEMBL1201862, “PubChem BioAssay data set” (2004)
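1) Cells in 96-well plates. 2) Compound, 48 h, 5 concentrations. 3) Linear interpolation between surrounding doses. 4) Unreached endpoint = highest concentration. GI50: concentration for 50% inhibition of growth.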 Calls of active or inactive are those of the source. Cut-off read from the data, not from the text of the source: active = GI50 up to about 1.1 µM and inactive = higher.

Legend:
Experiment in all cases: DTP human tumour cell line panel, 48 h
NCI-H522 = system: NCI-H522
SNB-75 = system: SNB-75
OVCAR-5 = system: OVCAR-5
NCI-H226 = system: NCI-H226
SK-MEL-5 = system: SK-MEL-5
RXF 393 = system: RXF 393
UACC-62 = system: UACC-62
CCRF-CEM = system: CCRF-CEM
NCI-H460 = system: NCI-H460
Malme-3M = system: Malme-3M
SF-295 = system: SF-295
LOX IMVI = system: LOX IMVI
EKVX = system: EKVX
K562 = system: K562
SK-OV-3 = system: SK-OV-3
COLO 205 = system: COLO 205
TK-10 = system: TK-10
OVCAR-3 = system: OVCAR-3
SW-620 = system: SW-620
HOP-92 = system: HOP-92

Row | SMILES | GI50 (NCI-H522) | GI50 (SNB-75) | GI50 (OVCAR-5) | GI50 (NCI-H226) | GI50 (SK-MEL-5) | GI50 (RXF 393) | GI50 (UACC-62) | GI50 (CCRF-CEM) | GI50 (NCI-H460) | GI50 (Malme-3M) | GI50 (SF-295) | GI50 (LOX IMVI) | GI50 (EKVX) | GI50 (K562) | GI50 (SK-OV-3) | GI50 (COLO 205) | GI50 (TK-10) | GI50 (OVCAR-3) | GI50 (SW-620) | GI50 (HOP-92)
1 | CN1C(=O)N(C)C(O)C(Cl)(Br)C1=O (stereo not given) | > 100 µM (inactive) | > 100 µM (inactive) | 0.182 µM (active) | > 100 µM (inactive) | > 100 µM (inactive) | > 100 µM (inactive) | > 100 µM (inactive) | > 100 µM (inactive) | > 100 µM (inactive) | > 100 µM (inactive) | > 100 µM (inactive) | > 100 µM (inactive) | > 100 µM (inactive) | > 100 µM (inactive) | > 100 µM (inactive) | > 100 µM (inactive) | > 100 µM (inactive) | > 100 µM (inactive) | > 100 µM (inactive) | –
2 | CC1(C)OC(=O)C(Cc2ccccc2)(Cc2ccccc2)C(=O)O1 | > 100 µM (inactive) | > 100 µM (inactive) | > 100 µM (inactive) | > 100 µM (inactive) | > 100 µM (inactive) | 3.58 µM (inactive) | > 100 µM (inactive) | > 100 µM (inactive) | > 100 µM (inactive) | > 100 µM (inactive) | > 100 µM (inactive) | > 100 µM (inactive) | > 100 µM (inactive) | > 100 µM (inactive) | > 100 µM (inactive) | > 100 µM (inactive) | > 100 µM (inactive) | – | > 100 µM (inactive) | –
3 | CN(c1ccccc1Cl)S(=O)(=O)c1ccccc1[N+](=O)[O-] | 32.7 µM (inactive) | 40.6 µM (inactive) | 30.6 µM (inactive) | 41.5 µM (inactive) | 15.3 µM (inactive) | 29 µM (inactive) | 27.1 µM (inactive) | 33.2 µM (inactive) | 33.9 µM (inactive) | 79.6 µM (inactive) | 71.4 µM (inactive) | 42.6 µM (inactive) | 39.2 µM (inactive) | 21.3 µM (inactive) | 51.5 µM (inactive) | 34.2 µM (inactive) | 82 µM (inactive) | 37.8 µM (inactive) | 78.9 µM (inactive) | –
4 | Cn1nc(-c2ccccc2)c2c(/C=C/c3ccc(F)cc3)onc2c1=O | 17.5 µM (inactive) | – | – | – | > 100 µM (inactive) | 23.3 µM (inactive) | > 100 µM (inactive) | > 100 µM (inactive) | > 100 µM (inactive) | – | – | 90.4 µM (inactive) | > 100 µM (inactive) | 17.3 µM (inactive) | 50 µM (inactive) | > 100 µM (inactive) | 90.6 µM (inactive) | – | > 100 µM (inactive) | 2.72 µM (inactive)
5 | Cc1cc(S(=O)(=O)Nc2nc(N)n(-c3ccccc3)n2)c(S)cc1Cl | > 100 µM (inactive) | > 100 µM (inactive) | > 100 µM (inactive) | > 100 µM (inactive) | > 100 µM (inactive) | > 100 µM (inactive) | > 100 µM (inactive) | > 100 µM (inactive) | > 100 µM (inactive) | > 100 µM (inactive) | – | > 100 µM (inactive) | > 100 µM (inactive) | > 100 µM (inactive) | > 100 µM (inactive) | > 100 µM (inactive) | > 100 µM (inactive) | > 100 µM (inactive) | > 100 µM (inactive) | –
6 | CCOC(=O)/C(C(=O)Nc1ccc(F)cc1)=C(/N)N1CCCC1 | > 100 µM (inactive) | > 100 µM (inactive) | > 100 µM (inactive) | > 100 µM (inactive) | – | > 100 µM (inactive) | > 100 µM (inactive) | > 100 µM (inactive) | > 100 µM (inactive) | > 100 µM (inactive) | > 100 µM (inactive) | > 100 µM (inactive) | > 100 µM (inactive) | > 100 µM (inactive) | > 100 µM (inactive) | > 100 µM (inactive) | > 100 µM (inactive) | > 100 µM (inactive) | > 100 µM (inactive) | –
7 | CC1(C)CC(=O)C(Cc2ccccc2)(Cc2ccccc2)C(=O)C1 | > 100 µM (inactive) | 39.8 µM (inactive) | > 100 µM (inactive) | > 100 µM (inactive) | > 100 µM (inactive) | 33.8 µM (inactive) | > 100 µM (inactive) | > 100 µM (inactive) | > 100 µM (inactive) | > 100 µM (inactive) | > 100 µM (inactive) | > 100 µM (inactive) | > 100 µM (inactive) | > 100 µM (inactive) | > 100 µM (inactive) | > 100 µM (inactive) | > 100 µM (inactive) | – | > 100 µM (inactive) | –
8 | COc1cc2c[n+]3c4c(c2c(OC)c1OC)CCCC4CC3 (stereo not given) | 30.8 µM (inactive) | – | > 100 µM (inactive) | – | 19.3 µM (inactive) | > 100 µM (inactive) | > 100 µM (inactive) | 35.3 µM (inactive) | > 100 µM (inactive) | 15.5 µM (inactive) | > 100 µM (inactive) | – | > 100 µM (inactive) | 62.4 µM (inactive) | > 100 µM (inactive) | > 100 µM (inactive) | – | 66.5 µM (inactive) | > 100 µM (inactive) | > 100 µM (inactive)
